# Earlier results, collected in patent publication US20220047856A1, “HYDROGEL FOR IN-VIVO DIRECTIONAL RELEASE OF MEDICATION” (UMC Utrecht Holding B.V., priority 2018, published 2022).
# Conditions: local anaesthetic, conventional bupivacaine
smiles,measurement,value
"CCCCN1CCCCC1C(=O)Nc1c(C)cccc1C (stereo not shown) [Bupi, Bupivacaine]",duration of its effect,approx. 8 hours
